Active and inactive are the calls of the source. No cut-off for these calls is given here.
Experiments:
[1] = Induction of NGF gene expression in human 1321N1 cells at 200 uM relative to control; assay type: functional
[2] = test system: PC-12; experiment: Stimulation of neurite outgrowth in rat PC12 cells assessed as morphological change at 200 uM after 24 hrs; assay type: functional, cell-based

SMILES	Fold change [1]	Activity [2]
CC(C)C1=C2C3=CC=C(C=O)C[C@H](O)[C@]3(C)CC[C@@]2(C)[C@H](O)C1 [CYRNEINE A]	3.8	
CC(C)C1=CC(=O)[C@]2(C)CC[C@]3(C)C(=CC=C(C=O)C[C@@H]3O)[C@]12O [CYRNEINE B]	7.3	
CC(C)C1=CC(=O)[C@]2(C)CC[C@@]3(C)C(=O)CC(C=O)=CC[C@@H]3[C@H]12 [CYRNEINE C]	2.7	inactive
CC(C)C1=CC(=O)[C@]2(C)CC[C@@]3(C)C(=O)CC(C=O)=CC[C@@H]3[C@]12O [CYRNEINE D]	1.3	inactive
CC(C)C1=CC(=O)[C@]2(C)CC[C@]3(C)C(=CC=C(C=O)C[C@@H]3O)[C@H]12 [GLAUCOPINE C]	3.5	inactive

From ChEMBL document CHEMBL1142930, “Cyathane diterpenes from Sarcodon cyrneus and evaluation of their activities of neuritegenesis and nerve growth factor production” (2007)
